Measurements from EPA's ToxRefDB 2.

Experiments:
dog [1] = settings: Subchronic oral toxicity in nonrodent, beagle, Capsule, dose end: 90 day, group: systemic
rat [2] = settings: Reproduction/developmental toxicity screening test, sprague dawley, Oral, Water, dose end: 1 generation, group: parental
rat [3] = settings: Subchronic oral toxicity in rodents, other, Gavage/Intubation, dose end: 90 day, group: systemic
mouse [4] = settings: Subchronic oral toxicity in rodents, b6c3f1, Water, dose end: 14 week, group: systemic
rat [5] = settings: Subchronic oral toxicity in rodents, sprague dawley, Water, dose end: 13 week, group: systemic
rat [6] = settings: Combined chronic toxicity/carcinogenicity, fischer, Oral, Water, dose end: 105 week, group: systemic
mouse [7] = settings: Combined chronic toxicity/carcinogenicity, b6c3f1, Oral, Water, dose end: 105 week, group: systemic
rat [8] = settings: Reproduction/developmental toxicity screening test; sprague dawley; Oral; Water; dose end: 1 PND; group: parental; systemic / in life observation / water consumption / water consumption
rat [9] = settings: Subchronic oral toxicity in rodents, fischer, Water, dose end: 14 week, group: systemic
rat [10] = settings: Carcinogenicity; fischer; Oral; Feed; dose end: 2 year; group: systemic; systemic / in life observation / body weight / body weight
mouse [11] = settings: Subchronic oral toxicity in rodents, b6c3f1, Feed, dose end: 45 day, group: systemic, systemic / in life observation / mortality / mortality
mouse [12] = settings: Carcinogenicity; b6c3f1; Oral; Feed; dose end: 2 year; group: systemic; systemic / in life observation / body weight / body weight
rat [13] = settings: Subchronic oral toxicity in rodents, fischer, Feed, dose end: 45 day, group: systemic
rat [14] = settings: Subchronic oral toxicity in rodents, other, Gavage/Intubation, dose end: 90 day, group: systemic; remark: listed apart in the source
rat [15] = settings: Carcinogenicity, fischer, Oral, Feed, dose end: 105 week, group: systemic
rat [16] = settings: Subchronic oral toxicity in rodents, Fischer, Feed, dose end: 13 week, group: systemic
rat [17] = settings: Combined chronic toxicity/carcinogenicity, fischer, Oral, Feed, dose end: 2 year, group: systemic
mouse [18] = settings: Subchronic oral toxicity in rodents, b6c3f1, Feed, dose end: 13 week, group: systemic
mouse [19] = settings: Multigenerational reproductive toxicity study, b6c3f1, Oral, Feed, dose end: 2 generation
rat [20] = settings: Subchronic oral toxicity in rodents, fischer, Feed, dose end: 13 week, group: systemic
mouse [21] = settings: Carcinogenicity, b6c3f1, Oral, Feed, dose end: 2 year, group: systemic
mouse [22] = settings: Carcinogenicity, swiss albino, Oral, Feed, dose end: 18 month, group: systemic
dog [23] = settings: Chronic toxicity; beagle; Oral; Capsule; dose end: 12 month; group: systemic; systemic / clinical chemistry / urea nitrogen / urea + systemic / in life observation / clinical signs / altered breathing rate + systemic…
mouse [24] = settings: Carcinogenicity, cd1, Oral, Feed, dose end: 18 month, group: systemic
[25] = systemic / clinical chemistry / alkaline phosphatase (alp/alk) / alkaline phosphatase (alp/alk) + systemic / clinical chemistry / calcium / …
[26] = systemic / in life observation / food consumption / food consumption + systemic / in life observation / water consumption / water …
[27] = systemic / in life observation / water consumption / water consumption
[28] = systemic / organ weight / thymus / absolute + systemic / organ weight / thymus / relative to body weight + systemic / organ weight / thymus…
[29] = systemic / in life observation / water consumption / water consumption + systemic / pathology gross / sperm measure / sperm motility
[30] = systemic / pathology gross / sperm measure / sperm motility
[31] = systemic / pathology gross / thyroid gland / enlarged + systemic / pathology microscopic / thyroid gland / cellular alteration
[32] = systemic / pathology gross / thyroid gland / enlarged + systemic / pathology microscopic / thyroid gland / cellular alteration + systemic / …
[33] = systemic / pathology microscopic / esophagus / hyperkeratosis + systemic / pathology microscopic / oral mucosa / [other] + systemic / …
[34] = systemic / in life observation / body weight / body weight
[35] = systemic / clinical chemistry / alanine aminotransferase (alt/sgpt) / alanine aminotransferase (alt/sgpt) + systemic / clinical chemistry / …
[36] = systemic / in life observation / body weight / body weight + systemic / in life observation / mortality / mortality
[37] = systemic / clinical chemistry / 5' nucleotidase / 5' nucleotidase + systemic / clinical chemistry / protein / protein + systemic / in life …
[38] = systemic / clinical chemistry / 5' nucleotidase / 5' nucleotidase + systemic / organ weight / liver / relative to body weight + systemic / …
[39] = systemic / pathology microscopic / kidney / hyperplasia + systemic / pathology microscopic / pancreas / hyperplasia
[40] = systemic / pathology microscopic / kidney / hyperplasia + systemic / pathology microscopic / pancreas / hyperplasia + systemic / pathology …
[41] = systemic / clinical chemistry / creatinine / creatinine + systemic / urinalysis / specific gravity/osmolality / specific gravity/osmolality…
[42] = systemic / in life observation / body weight / body weight gain + systemic / in life observation / body weight / body weight + systemic / …
[43] = systemic / pathology microscopic / kidney / hyperplasia + systemic / pathology microscopic / kidney / pigmentation
[44] = systemic / pathology microscopic / kidney / hyperplasia + systemic / pathology microscopic / kidney / pigmentation + systemic / pathology …
[45] = systemic / in life observation / body weight / body weight + systemic / in life observation / body weight / body weight gain
[46] = group: offspring, systemic / in life observation / body weight / offspring (pup) weight
[47] = group: parental, systemic / in life observation / body weight / body weight + systemic / in life observation / food consumption / food consumption + systemic…
[48] = group: parental, systemic / in life observation / body weight / body weight + systemic / organ weight / kidney / relative to body weight + systemic / in life…
[49] = group: reproductive, reproductive / reproductive performance / reproductive performance other / NOS + reproductive / reproductive performance / estrous cycle / …
[50] = systemic / pathology microscopic / kidney / hyaline droplet
[51] = systemic / in life observation / body weight / body weight + systemic / pathology microscopic / lung / hyperplasia
[52] = systemic / pathology microscopic / lung / adenoma/carcinoma combined
[53] = systemic / organ weight / kidney / absolute + systemic / organ weight / kidney / relative to body weight + systemic / organ weight / liver…
[54] = systemic / pathology microscopic / liver / adenoma + systemic / pathology microscopic / liver / adenoma/carcinoma combined + systemic / …
[55] = systemic / pathology microscopic / liver / adenoma/carcinoma combined + systemic / hematology / erythrocyte (rbc) count differential / …

O=[N+]([O-])[O-].[Ag+] [Silver nitrate]
LOAEL (dog [1]; [25]): 250 mg/kg/day
NEL (dog [1]; [25]): 10 mg/kg/day
NOAEL (dog [1]; [25]): 50 mg/kg/day
LEL (dog [1]; systemic / in life observation / clinical signs / headflicking + systemic / in life observation / clinical signs / salivation + systemic / …): 50 mg/kg/day

N#CC(Br)Br [Dibromoacetonitrile]
LOAEL (rat [2]; [26]): > 8.2 mg/kg/day
NEL (rat [2]; [26]): 1.4 mg/kg/day
NOAEL (rat [2]; [26]): ≥ 8.2 mg/kg/day
LEL (rat [2]; [27]): 3.3 mg/kg/day
LEL (rat [3]; systemic / clinical chemistry / albumin / albumin): 23 mg/kg/day
NEL (rat [3]; systemic / clinical chemistry / albumin / albumin + systemic / clinical chemistry / globulins / globulins + systemic / clinical chemistry / …): 6 mg/kg/day
LOAEL (rat [3]; [28]): > 45 mg/kg/day
NOAEL (rat [3]; [28]): ≥ 45 mg/kg/day
LOAEL (mouse [4]; [29]): > 18 mg/kg/day
NOAEL (mouse [4]; [29]): ≥ 18 mg/kg/day
LEL (mouse [4]; [30]): 2 mg/kg/day
NEL (mouse [4]; [30]): < 2 mg/kg/day
LEL (rat [5]; [31]): 0.005 mg/kg/day
NEL (rat [5]; [31]): < 0.005 mg/kg/day
LOAEL (rat [5]; [32]): > 5 mg/kg/day
NOAEL (rat [5]; [32]): ≥ 5 mg/kg/day
LOAEL (rat [6]; systemic / pathology microscopic / esophagus / hyperkeratosis): 4 mg/kg/day
LEL (rat [6]; systemic / pathology microscopic / esophagus / hyperkeratosis + systemic / pathology microscopic / oral mucosa / [other] + systemic / in …): 4 mg/kg/day
NEL (rat [6]; [33]): 2 mg/kg/day
NOAEL (rat [6]; [33]): 2 mg/kg/day
LOAEL (mouse [7]; [34]): 11 mg/kg/day
NOAEL (mouse [7]; systemic / in life observation / body weight / body weight + systemic / pathology microscopic / stomach / squamous cell papilloma + systemic…): 6 mg/kg/day
LEL (mouse [7]; [27]): 3 mg/kg/day
NEL (mouse [7]; [27]): < 3 mg/kg/day
LEL (rat [8]): 5.3 mg/kg/day
LOAEL (rat [8]): > 10.8 mg/kg/day
NEL (rat [8]): 1.9 mg/kg/day
NOAEL (rat [8]): ≥ 10.8 mg/kg/day
LOAEL (rat [9]; [35]): > 11 mg/kg/day
NEL (rat [9]; [35]): 2 mg/kg/day
NOAEL (rat [9]; [35]): ≥ 11 mg/kg/day
LEL (rat [9]; [30]): 3 mg/kg/day

Cc1ccc(S(=O)(=O)NC(=O)NN2CCCCCC2)cc1 [Tolazamide]
LEL (rat [10]): 250 mg/kg/day
LOAEL (rat [10]): > 500 mg/kg/day
NEL (rat [10]): < 250 mg/kg/day
NOAEL (rat [10]): ≥ 500 mg/kg/day
LEL (mouse [11]): 3750 mg/kg/day
LOAEL (mouse [11]): > 7500 mg/kg/day
NEL (mouse [11]): 1800 mg/kg/day
NOAEL (mouse [11]): ≥ 7500 mg/kg/day
LEL (mouse [12]): 750 mg/kg/day
LOAEL (mouse [12]): 750 mg/kg/day
NEL (mouse [12]): < 750 mg/kg/day
NOAEL (mouse [12]): < 750 mg/kg/day
LEL (rat [13]; [34]): 1000 mg/kg/day
LOAEL (rat [13]; [34]): 1000 mg/kg/day
NEL (rat [13]; [36]): 500 mg/kg/day
NOAEL (rat [13]; [36]): 500 mg/kg/day

N#CC(Cl)Cl [Dichloroacetonitrile]
LOAEL (rat [14]; [37]): > 65 mg/kg/day
NOAEL (rat [14]; [37]): ≥ 65 mg/kg/day
LEL (rat [14]; [38]): 8 mg/kg/day
NEL (rat [14]; [38]): < 8 mg/kg/day

OCC(CO)(CCBr)CCBr [2,2-Bis(bromoethyl)-1,3-propanediol]
LOAEL (rat [15]; [39]): 100 mg/kg/day
NOAEL (rat [15]; [39]): < 100 mg/kg/day
LEL (rat [15]; [40]): 100 mg/kg/day
NEL (rat [15]; [40]): < 100 mg/kg/day
LEL (rat [16]; [41]): 100 mg/kg/day
NEL (rat [16]; [41]): < 100 mg/kg/day
LOAEL (rat [16]; [42]): 400 mg/kg/day
NOAEL (rat [16]; [42]): 200 mg/kg/day

O=C(O)c1ccc([N+](=O)[O-])cc1 [4-Nitrobenzoic acid]
LEL (rat [17]; [43]): 50 mg/kg/day
NEL (rat [17]; [43]): < 50 mg/kg/day
LOAEL (rat [17]; [44]): 100 mg/kg/day
NOAEL (rat [17]; [44]): 50 mg/kg/day
LEL (mouse [18]; [45]): 170 mg/kg/day
LOAEL (mouse [18]; [45]): 670 mg/kg/day
NEL (mouse [18]; [45]): < 170 mg/kg/day
NOAEL (mouse [18]; systemic / in life observation / body weight / body weight + systemic / in life observation / body weight / body weight gain + systemic / …): 330 mg/kg/day
LEL (mouse [19]; [46]): 500 mg/kg/day
LOAEL (mouse [19]; [46]): > 2400 mg/kg/day
NEL (mouse [19]; [46]): < 500 mg/kg/day
NOAEL (mouse [19]; [46]): ≥ 2400 mg/kg/day
LEL (mouse [19]; [47]): 500 mg/kg/day
NEL (mouse [19]; [47]): < 500 mg/kg/day
LOAEL (mouse [19]; [48]): > 2400 mg/kg/day
NOAEL (mouse [19]; [48]): ≥ 2400 mg/kg/day
LOAEL (mouse [19]; [49]): > 2400 mg/kg/day
NEL (mouse [19]; [49]): 500 mg/kg/day
NOAEL (mouse [19]; [49]): ≥ 2400 mg/kg/day
LEL (mouse [19]; group: reproductive, reproductive / reproductive performance / reproductive performance other / NOS + reproductive / reproductive performance / gestational …): 1100 mg/kg/day
LOAEL (rat [20]; systemic / in life observation / body weight / body weight gain + systemic / organ weight / spleen / relative to body weight + systemic / …): 310 mg/kg/day
LEL (rat [20]; [50]): 40 mg/kg/day
NEL (rat [20]; [50]): < 40 mg/kg/day
NOAEL (rat [20]; systemic / pathology microscopic / kidney / hyaline droplet + systemic / in life observation / body weight / body weight gain + systemic / …): 160 mg/kg/day
LOAEL (mouse [21]; [51]): > 675 mg/kg/day
NOAEL (mouse [21]; [51]): ≥ 675 mg/kg/day
LEL (mouse [21]; [52]): 170 mg/kg/day
NEL (mouse [21]; [52]): < 170 mg/kg/day

N#Cc1cc(Br)c(O)c(Br)c1 [Bromoxynil]
LOAEL (mouse [22]; [53]): > 13.3 mg/kg/day
NOAEL (mouse [22]; [53]): ≥ 13.3 mg/kg/day
NEL (mouse [22]; systemic / pathology microscopic / liver / adenoma + systemic / pathology microscopic / liver / carcinoma + systemic / organ weight / liver…): 1.33 mg/kg/day
LEL (mouse [22]; systemic / pathology microscopic / liver / carcinoma + systemic / pathology microscopic / liver / hyperplasia): 4 mg/kg/day
LEL (dog [23]): 1.5 mg/kg/day
LOAEL (dog [23]): 1.5 mg/kg/day
NEL (dog [23]): 0.3 mg/kg/day
NOAEL (dog [23]): 0.3 mg/kg/day
LOAEL (mouse [24]; [54]): 12 mg/kg/day
NOAEL (mouse [24]; [54]): 3.1 mg/kg/day
LEL (mouse [24]; [55]): 3.1 mg/kg/day
NEL (mouse [24]; [55]): < 3.1 mg/kg/day
